The term IC50 denotes the concentration needed to halve the response being measured.

These results are taken from patent US12466841B2, “Substituted pyrrolo[3,4-c]pyridines as HPK1 antagonists” (Nimbus Saturn, Inc., priority 2021, dated 2025).

The target of this assay is HPK1 (Homo sapiens (Human), UniProt Q92918). As to the kind of experiment: HPK1 biochemical enzyme assay (microfluidic mobility shift). As to conditions: 1.5 nM HPK1, ATP 1 mM final, 60 min at RT, Caliper EZ Reader; read-out: HPK1 1000UMATP caliper IC50. On the procedure: HPK1 biochemical enzyme assay: HPK1 enzyme inhibition was measured using a microfluidic mobility shift assay. Reactions were performed in a 384-well plate, containing 1.5 nM HPK1 (Invitrogen), in assay buffer (Cana Biosciences; pH 7.4). Test compounds were titrated in ten point curves (top final assay concentration 3 μM), and preincubated with enzyme/substrate mix for 30 min prior to initiation of the reaction by addition of ATP (1 mM final concentration) and substrate (1 μM final concentration; Carna Biosciences) diluted in assay buffer supplemented by MgCl2 (final assay concentration of 5 mM). Following 60 min incubation at RT, the reaction was terminated by addition of 60 μl/well termination buffer (Carna Biosciences) and signal determination using a Caliper EZ Reader (Perkin Elmer, UK).
HPK1, sequence (Q92918 whole entry): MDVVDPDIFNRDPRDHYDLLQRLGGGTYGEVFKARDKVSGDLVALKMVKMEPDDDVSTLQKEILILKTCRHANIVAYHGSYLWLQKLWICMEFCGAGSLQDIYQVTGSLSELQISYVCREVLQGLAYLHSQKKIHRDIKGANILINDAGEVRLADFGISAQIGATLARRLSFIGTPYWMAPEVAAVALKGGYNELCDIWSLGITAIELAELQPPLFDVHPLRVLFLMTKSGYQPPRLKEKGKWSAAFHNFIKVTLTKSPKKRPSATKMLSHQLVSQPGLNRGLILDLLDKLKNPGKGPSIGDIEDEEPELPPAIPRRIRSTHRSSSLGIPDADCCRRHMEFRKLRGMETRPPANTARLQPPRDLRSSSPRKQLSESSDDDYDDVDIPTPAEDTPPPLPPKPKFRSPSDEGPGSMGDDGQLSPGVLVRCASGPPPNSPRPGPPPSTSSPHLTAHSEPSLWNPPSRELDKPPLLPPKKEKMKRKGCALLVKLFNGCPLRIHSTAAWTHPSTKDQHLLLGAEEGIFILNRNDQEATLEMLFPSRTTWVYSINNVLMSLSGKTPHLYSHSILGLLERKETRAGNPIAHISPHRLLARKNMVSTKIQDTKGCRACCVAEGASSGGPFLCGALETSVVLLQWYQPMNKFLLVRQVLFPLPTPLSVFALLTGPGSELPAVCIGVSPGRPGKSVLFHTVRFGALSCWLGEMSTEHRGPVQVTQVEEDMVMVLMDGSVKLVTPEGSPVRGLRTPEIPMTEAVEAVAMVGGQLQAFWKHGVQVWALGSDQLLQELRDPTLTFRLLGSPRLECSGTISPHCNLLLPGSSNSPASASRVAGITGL
Compounds having an activity designated as “A” provided an IC50≤100 nM; compounds having an activity designated as “B” provided an IC50>100 nM.
As for `CN(C)Cc1cc(Nc2ncc(-c3ccnc4c3ccn4C)c3c2C(=O)NC3)ccc1N1CCOCC1` [Compound I-7, 4-((3-((dimethylamino)methyl)-4-morpholinophenyl)amino)-7-(1-methyl-1H-pyrrolo[2,3-b]pyridin-4-yl)-1,2-dihydro-3H-pyrrolo[3,4-c]pyridin-3-one], the half-inhibitory concentration (IC50) is ≤ 100 nM.
With `CN1CCN(c2ccc(Nc3ncc(-c4ccncc4)c4c3C(=O)NC4)cc2)CC1` [Compound I-5, 4-((4-(4-methylpiperazin-1-yl)phenyl)amino)-7-(pyridin-4-yl)-1,2-dihydro-3H-pyrrolo[3,4-c]pyridin-3-one] the figure was > 100 nM.
As for `CC(C)(O)C1CN(c2ccc(Nc3ncc(-c4ccncc4)c4c3C(=O)NC4)cc2)CCO1` (centres unmarked) [Compound I-27, 4-((4-(2-(2-hydroxypropan-2-yl)morpholino)phenyl)amino)-7-(pyridin-4-yl)-1,2-dihydro-3H-pyrrolo[3,4-c]pyridin-3-one], the IC50 is > 100 nM.
For the compound `CN(C)C[C@@H]1CN(c2ccc(Nc3ncc(-c4ccnc5c4ccn5C)c4c3C(=O)NC4)cc2)CCO1` (single isomer, unassigned) [Compound I-17], the IC50 was ≤ 100 nM.
With `Cn1ccc2c(-c3cnc(Nc4ccc(N5CCC[C@H](C(C)(C)O)C5)cc4)c4c3CNC4=O)ccnc21` [Compound I-11, (S)-4-((4-(3-(2-hydroxypropan-2-yl)piperidin-1-yl)phenyl)amino)-7-(1-methyl-1H-pyrrolo[2,3-b]pyridin-4-yl)-1,2-dihydro-3H-pyrrolo[3,4-c]pyridin-3-one] the figure was ≤ 100 nM; with `Cn1cncc1-c1cnc(Nc2ccc(N3CCNCC3)cc2)c2c1CNC2=O` [Compound I-26, 7-(1-methyl-1H-imidazol-5-yl)-4-((4-(piperazin-1-yl)phenyl)amino)-1,2-dihydro-3H-pyrrolo[3,4-c]pyridin-3-one], > 100 nM.
In the case of `Cn1ccc2c(-c3cnc(Nc4ccc(N5CCC(O)CC5)cc4)c4c3CNC4=O)ccnc21` [Compound I-8, 4-((4-(4-hydroxypiperidin-1-yl)phenyl)amino)-7-(1-methyl-1H-pyrrolo[2,3-b]pyridin-4-yl)-1,2-dihydro-3H-pyrrolo[3,4-c]pyridin-3-one], the concentration for half-maximal inhibition (IC50) was ≤ 100 nM.
As for `CC(C)(O)[C@H]1CN(c2ccc(Nc3ncc(-c4ccncc4)c4c3C(=O)NC4)cc2)CCO1` [Compound I-28, (R)-4-((4-(2-(2-hydroxypropan-2-yl)morpholino)phenyl)amino)-7-(pyridin-4-yl)-1,2-dihydro-3H-pyrrolo[3,4-c]pyridin-3-one], the concentration for half-maximal inhibition (IC50) is > 100 nM.
Take `Cn1cncc1-c1cnc(Nc2ccc(N3CCC[C@@H](C(C)(C)O)C3)cc2)c2c1CNC2=O` [Compound I-25, (R)-4-((4-(3-(2-hydroxypropan-2-yl)piperidin-1-yl)phenyl)amino)-7-(1-methyl-1H-imidazol-5-yl)-1,2-dihydro-3H-pyrrolo[3,4-c]pyridin-3-one]: the concentration for half-maximal inhibition (IC50) was > 100 nM.
Take `COCC1(O)CCN(c2ccc(Nc3ncc(-c4cnc5cc(F)ccn45)c4c3C(=O)NC4)cc2CN(C)C)CC1` [Compound I-22, 4-((3-((dimethylamino)methyl)-4-(4-hydroxy-4-(methoxymethyl)piperidin-1-yl)phenyl)amino)-7-(7-fluoroimidazo[1,2-a]pyridin-3-yl)-1,2-dihydro-3H-pyrrolo[3,4-c]pyridin-3-one]: the IC50 is > 100 nM.
With `CC(C)(O)[C@@H]1CCCN(c2ccc(Nc3ncc(-c4cnc5cc(F)ccn45)c4c3C(=O)NC4)cc2)C1` (single isomer, unassigned) [Compound I-4] the figure was > 100 nM; with `CNC1CCN(c2ccc(Nc3ncc(-c4ccncc4)c4c3C(=O)NC4)cc2)CC1` [Compound I-23, 4-((4-(4-(methylamino)piperidin-1-yl)phenyl)amino)-7-(pyridin-4-yl)-1,2-dihydro-3H-pyrrolo[3,4-c]pyridin-3-one], > 100 nM.
For `Cn1ccc2c(-c3cnc(Nc4ccc(N5CCC(O)CC5)cn4)c4c3CNC4=O)ccnc21` [Compound I-10, 4-((5-(4-hydroxypiperidin-1-yl)pyridin-2-yl)amino)-7-(1-methyl-1H-pyrrolo[2,3-b]pyridin-4-yl)-1,2-dihydro-3H-pyrrolo[3,4-c]pyridin-3-one], the IC50 was > 100 nM.
Regarding `Cn1ccc2c(-c3cnc(Nc4ccc(N5CCC[C@@H](C(C)(C)O)C5)cc4)c4c3CNC4=O)ccnc21` [Compound I-12, (R)-4-((4-(3-(2-hydroxypropan-2-yl)piperidin-1-yl)phenyl)amino)-7-(1-methyl-1H-pyrrolo[2,3-b]pyridin-4-yl)-1,2-dihydro-3H-pyrrolo[3,4-c]pyridin-3-one], the IC50 was ≤ 100 nM.
With “4-((3-((dimethylamino)methyl)-4-(4-hydroxypiperidin-1-yl)phenyl)amino)-7-(1-methyl-1H-pyrrolo[2,3-b]pyridin-4-yl)-1,2-dihydro-3H-pyrrolo[3,4-c]pyridin-3-one [Compound I-21]”, the IC50 is > 100 nM.
With `O=C1NCc2c(-c3cnc4cc(F)ccn34)cnc(Nc3ccc(N4CCC(O)CC4)cc3)c21` [Compound I-14, 7-(7-fluoroimidazo[1,2-a]pyridin-3-yl)-4-((4-(4-hydroxypiperidin-1-yl)phenyl)amino)-1,2-dihydro-3H-pyrrolo[3,4-c]pyridin-3-one] the figure was > 100 nM.
Consider `CN(C)Cc1cc(Nc2ncc(-c3cnc4cc(F)ccn34)c3c2C(=O)NC3)ccc1C1CCOCC1` [Compound I-6, 4-((3-((dimethylamino)methyl)-4-(tetrahydro-2H-pyran-4-yl)phenyl)amino)-7-(7-fluoroimidazo[1,2-a]pyridin-3-yl)-1,2-dihydro-3H-pyrrolo[3,4-c]pyridin-3-one], for which the half-maximal inhibitory concentration (IC50) is ≤ 100 nM.
With `CN1CCN(c2ccc(Nc3ncc(-c4cnc5cc(F)ccn45)c4c3C(=O)NC4)cc2)CC1` [Compound I-15, 7-(7-fluoroimidazo[1,2-a]pyridin-3-yl)-4-((4-(4-methylpiperazin-1-yl)phenyl)amino)-1,2-dihydro-3H-pyrrolo[3,4-c]pyridin-3-one] the figure was > 100 nM; with `Cn1cncc1-c1cnc(Nc2ccc(N3CCC[C@H](C(C)(C)O)C3)cc2)c2c1CNC2=O` [Compound I-24, (S)-4-((4-(3-(2-hydroxypropan-2-yl)piperidin-1-yl)phenyl)amino)-7-(1-methyl-1H-imidazol-5-yl)-1,2-dihydro-3H-pyrrolo[3,4-c]pyridin-3-one], ≤ 100 nM; with `Cn1ccc2c(-c3cnc(Nc4ccc(S(C)(=O)=O)cc4)c4c3CNC4=O)ccnc21` [Compound I-9, 7-(1-methyl-1H-pyrrolo[2,3-b]pyridin-4-yl)-4-((4-(methylsulfonyl)phenyl)amino)-1,2-dihydro-3H-pyrrolo[3,4-c]pyridin-3-one], > 100 nM.
Take `CN(C)Cc1cc(Nc2ncc(-c3cnc4cc(F)ccn34)c3c2C(=O)NC3)ccc1[C@@H]1CCOC1` [Compound I-20, (S)-4-((3-((dimethylamino)methyl)-4-(tetrahydrofuran-3-yl)phenyl)amino)-7-(7-fluoroimidazo[1,2-a]pyridin-3-yl)-1,2-dihydro-3H-pyrrolo[3,4-c]pyridin-3-one]: the IC50 was > 100 nM.
With `CN(C)Cc1cc(Nc2ncc(-c3cnc4cc(F)ccn34)c3c2C(=O)NC3)ccc1[C@H]1CCOC1` [Compound I-19, (R)-4-((3-((dimethylamino)methyl)-4-(tetrahydrofuran-3-yl)phenyl)amino)-7-(7-fluoroimidazo[1,2-a]pyridin-3-yl)-1,2-dihydro-3H-pyrrolo[3,4-c]pyridin-3-one] the figure was ≤ 100 nM; with `CC(C)(O)C1CN(c2ccc(Nc3ncc(-c4cnc5cc(F)ccn45)c4c3C(=O)NC4)cc2)CCO1` (centres unmarked) [Compound I-16, 7-(7-fluoroimidazo[1,2-a]pyridin-3-yl)-4-((4-(2-(2-hydroxypropan-2-yl)morpholino)phenyl)amino)-1,2-dihydro-3H-pyrrolo[3,4-c]pyridin-3-one], ≤ 100 nM.
With `Cc1ccc2c(-c3cnc(Nc4ccc(N5CCC(O)CC5)cc4)c4c3CNC4=O)cnn2c1` [Compound I-13, 4-((4-(4-hydroxypiperidin-1-yl)phenyl)amino)-7-(6-methylpyrazolo[1,5-a]pyridin-3-yl)-1,2-dihydro-3H-pyrrolo[3,4-c]pyridin-3-one] the figure was ≤ 100 nM; with `CN(C)C[C@H]1CN(c2ccc(Nc3ncc(-c4ccnc5c4ccn5C)c4c3C(=O)NC4)cc2)CCO1` (single isomer, unassigned) [Compound I-18], ≤ 100 nM; with `Cn1ccc2c(-c3cnc(Nc4ccc(N5CCC(O)CC5)nc4)c4c3CNC4=O)ccnc21` [Compound I-1, 4-((6-(4-hydroxypiperidin-1-yl)pyridin-3-yl)amino)-7-(1-methyl-1H-pyrrolo[2,3-b]pyridin-4-yl)-1,2-dihydro-3H-pyrrolo[3,4-c]pyridin-3-one], > 100 nM.
